Source: US6271342A, “Sugar-modified cytostatics” (Bayer Aktiengesellschaft, priority 1995, dated 2001)
In brackets after ≈: the same amount, converted by molar mass.

Key:
B16F10 tumour = assay: In vivo test, survival of mice with transplanted B16F10 tumour; set-up: species or system mouse; conditions: 0.1 mg/kg, treated daily
Protocol: Mice are inoculated with 5×10^6 B16F10 tumour cells on day 0. The animals in which tumour cells are transplanted develop solid peritoneal tumours and are then treated daily with test substances or with the vehicle control. In the control group, 50% of the animals usually die between day 14 and 20. The test substances are administered in buffer or an organic solvent system comprising 20% methanol and 20% dimethyl sulphoxide in 0.7% sodium chloride solution.
The therapeutic result arises from the prolonging of the survival time of the treated animals. […] A therapeutic index can be estimated from the tolerance and prolonging of the survival time.

bone marrow parent cells = assay: Bone marrow parent cell proliferation after in vivo treatment; set-up: species or system mouse
Protocol: Mice are treated subcutaneously with 1, 3, 10 or 30 mg/kg of the compounds. At various times (3, 24, 48, 72 p. inj.) the femurs are removed and the bone marrow cells isolated. 2×10^5 cells are incubated with GM-CSF as described above and, after 7 days, the colonies and clusters are counted.

[1] = tested on: bone marrow parent cells of the mouse; assay: CSF-induced proliferation of bone marrow parent cells, in vitro; type: cell-based; conditions: recombinant murine GM-CSF, 7 days
Protocol: Bone marrow cells are flushed out of the femur of mice. 10^5 cells are incubated in McCoy SA medium (0.3% agar) together with recombinant murine GM-CSF (Genzyme; parent cell colony formation) and the substances (10^-4 to 100 μg/ml) at 37° C. and 7% CO2. 7 days later, the colonies ([…]) and clusters (17-50 cells) are counted.

HT 29 [2] = assay: Two-layer soft agar culture of human tumour xenografts; type: cell-based; conditions: T/C ≤30%
Protocol: (§1) The in vitro activity of glycoconjugates of quinolone-a was determined on human tumour xenografts in a two-layer soft agar culture system according to Hamburger and Salmon (Science 197: 461-463).
(§2) The solid tumours were initially grown in the athymic naked mouse (NMRI nu/nu), obtained by surgery and comminuted mechanically. Individual cells were then obtained by incubation in an enzyme mixture of collagenase 0.05%, DNAse 0.07% and hyaluronidase 0.1% in RPMI at 37° C. for 30 minutes. The cells were washed 2× and then passed through a sieve of 200 μm and 20 μm mesh width.
(§3) The base layer comprises 0.2 ml of Iscoves's Modified Dulbeccos Medium with 20% foetal calf serum and 0.7% agar. 40,000 to 200,000 cells in 0.2 ml of the same medium and 0.4% agar were applied to this layer in 24 multiwell plates. The cytostatic substances were added in 0.2 ml of medium.
(§4) The cultures were incubated at 37° C. in a 7% CO2 atmosphere for 6 to 15 days. The colonies which had grown were then counted under an inverting microscope, the living colonies being stained with a tetrazolium chloride dyestuff 24 hours before the evaluation.
(§5) The effect of the active compound is expressed in per cent of surviving colonies compared with the colony count of untreated plates (T/C=colony count treated×100/control count untreated).
(§6) A substance is active if the T/C value is ≤30%.
(§7) This value is shown as the IC70 value in μg/ml in Table 8.

LXFL 529 = assay: as above; type: cell-based; conditions: T/C ≤30%
Protocol: as §1, §2, §3, §4, §5, §6, §7

LXFS 538 = assay: as above; type: cell-based; conditions: T/C ≤30%
Protocol: as §1, §2, §3, §4, §5, §6, §7

SW 480 [3] = assay: as above; type: cell-based; conditions: T/C ≤30%
Protocol: as §1, §2, §3, §4, §5, §6, §7

OVXF 1023 = assay: as above; type: cell-based; conditions: T/C ≤30%
Protocol: as §1, §2, §3, §4, §5, §6, §7

OVXF 899 = assay: as above; type: cell-based; conditions: T/C ≤30%
Protocol: as §1, §2, §3, §4, §5, §6, §7

MEXF 989 = assay: as above; type: cell-based; conditions: T/C ≤30%
Protocol: as §1, §2, §3, §4, §5, §6, §7

CXF 280 = assay: as above; type: cell-based; conditions: T/C ≤30%
Protocol: as §1, §2, §3, §4, §5, §6, §7

[4] = Acute toxicity, single administration; type: in vivo, nu/nu naked mice; conditions: single administration i.v., aqueous solution
Protocol: Determination of the Acute Toxicity of Glycoconjugates of Batracyline (Single Administration)
The acute toxicity of the batracyline derivatives was determined on nu/nu naked mice.
The substances administered i.v., as aqueous solutions, and the substances administered i.p., as solutions in dimethyl sulphoxide, were injected once in concentrations of up to 400 mg of substance per kg of mouse.
The individual dose tolerated was calculated from the decrease in the weight of the animals up to 21 days after administration and from the number of animals surviving.

hepatoma = assay: Cleavage kinetics with cells (HPLC); conditions: Table 2b; 37° C.
Protocol: Cleavage Kinetics With Cells
(§9) 2.25 ml of PBS are incubated together with 225 μl of a cell suspension (30 mg/ml) and 25 μl of substrate stock solution (1 mg/ml in 3% dimethyl sulphoxide in PBS) at 37° C. After 1 hour and 24 hours, samples of in each case 1 ml are taken, mixed with 1 ml of ethanol and left to stand at 4° C. for 20 minutes. After centrifugation (5 minutes at 3500 rpm), 100 μl of supernatant are taken for the HPLC analysis.

SW-480 = assay: Cleavage kinetics with cells (HPLC); conditions: Table 2b; 37° C.
Protocol: Cleavage Kinetics With Cells
as §9

SW 480 [5] = assay: Growth inhibition test (MTT) for cytotoxic properties; type: cell-based, human
Summary of the method: (§8)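 SW 480 and HT 29 cells in RPMI 1640 with 10% FCS were seeded at 50,000 cells/ml, grown 1 day at 37 °C, then exposed to compound added in DMSO. MTT (5 mg/ml stock) was applied after day 3 and day 6 for 5 h, and formazan absorbance was read at 540 nm. IC50 values reported.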

[6] = Cleavage kinetics with human blood (HPLC); type: in vitro ADME; conditions: Table 2b; 37° C.
Description: In Vitro Investigation of the Cleavability of the Glycoconjugates
Cleavage Kinetics With Human Blood

B 16 F 10 = assay: Growth inhibition test (MTT) for cytotoxic properties; type: cell-based, mouse; conditions: Table 1b
Summary of the method: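 Cells in RPMI 1640 with 10% FCS pre-cultured 1 day at 37° C, then exposed to test substances in DMSO; growth checked after day 3 and day 6. Read-out by MTT, 5 h incubation, isopropanol solubilization, extinction at 540 nm.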

[7] = Investigation of organ distribution in naked mice carrying SW 480 tumours; type: in vivo, Athymic naked mice (strain NMRI nu/nu)
Description: Athymic naked mice (strain NMRI nu/nu) bred in "Drug Development Laboratory, Oncotest GmbH", Prof. H. H. Fiebig, Freiburg, were used for all the experiments. The animals were kept in Macrolon cages under laminar flow conditions. Tissue of the cell line SW 480 which had been grown beforehand in several passages in the naked mice, was used as the tumour material.
Two tumours per animal were implanted subcutaneously in the two flanks of the naked mice 6 to 8 weeks old. The animals were kept for 26 to 27 days until the time of randomization. The average tumour size was then 500 mg, corresponding to a tumour diameter of about 10 mm.
The pharmacokinetics themselves proceeded as follows: the substance to be investigated was injected into the naked mice and the mice were then put back in the cages until samples were taken after 1/2 hour and after 4 hours. The taking of samples itself began with sampling of blood. For this, the mouse was anaesthetized by means of anaesthetic ether (duration 1/2 to one minute). 0.5 hour and 4 hours after injection of the substance, the abdominal cavity was opened and the mouse was exsanguinated under anaesthesia via the Vena cava caudalis in the course of 1 to 2 minutes and then sacrificed by breaking its neck. As a result, central circulatory arrest occurred and organ perfusion was suppressed. The individual organs were then exposed and removed, an operation which took about 5 minutes. Immediately thereafter, the organ samples and then the remainder of the body were weighed and frozen in liquid nitrogen.
The substance "conjugate 1" is administered i.p. in an amount of 300 mg/kg of body weight and the substance "conjugate 2" is administered i.v. into the tail vein in an amount of 100 mg/kg. 5 animals are used per substance and time.
5, 10, 50, 100 and 200 μg of substance, dissolved in ethanol/water (1:1, v/v) were added to 1 g of bovine liver. The samples were then ground in a mortar with 1 g of sea sand and 2.5 ml of cooled ethanol/water (1:1, v/v) and centrifuged at 3500 rpm for 2 minutes. After removal of the supernatant, the residue was again mixed with 2.5 ml of ethanol/water and centrifuged and the supernatants were combined. In each case 100 μl were taken and analyzed by HPLC.
The organs were worked up analogously to A, the entire organs being broken down with 2.5 ml of ethanol/water and extracted.
The amount of blood taken was mixed with 2 ml of ethanol/water (1:1, v/v) and centrifuged for 2 minutes at 3500 rpm, and the supernatant was decanted. 2 ml of ethanol/water (1:1, v/v) were again added to the residue, the mixture was centrifuged and the supernatants were combined. In each case 100 μl of the combined supernatants were analyzed by HPLC. The HPLC conditions used under A were used. [drawing 14]

HT 29 [8] = assay: Growth inhibition test (MTT) for cytotoxic properties; type: cell-based, human; conditions: Table 1a, glycoconjugates of batracyline
Summary of the method: as §8

[9] = Investigation of organ distribution in naked mice carrying SW 480 tumours; type: in vivo, Athymic naked mice (strain NMRI nu/nu); conditions: after conjugate 1 i.p. 300 mg/kg
[10] = Kidney, after conjugate 2 i.v. 100 mg/kg
[11] = Tumour, after conjugate 2 i.v. 100 mg/kg

Compound: N[C@@H]1C=CC[C@@H]2CN(c3c(F)cc4c(=O)c(C(=O)O)cn(C5CC5)c4c3Cl)C[C@@H]21 (racemic) [Quinolone-a, 7-[(3aRS,4RS,7aSR)-4-amino-1,3,3a,4,7,7a-hexahydro-isoindol-2-yl]-8-chloro 1-cyclopropyl-6-fluoro-1,4-dihydro4-oxo-3-quinolinecarboxylic acid, reference compound]
- % survivors Day 0 (B16F10 tumour): 100%
- % survivors Day 20 (B16F10 tumour): 100%
- % survivors Day 25 (B16F10 tumour): 100%
- % survivors Day 30 (B16F10 tumour): 60%
- % survivors Day 35 (B16F10 tumour): 40%
- suppression of parent cell proliferation in vivo (bone marrow parent cells; 3 mg/kg, subcutaneously (FIG. 1)): massive suppression
- IC50 ([1]; Mus musculus, 168 h, read-out: IC50 [μg/ml] CSF-induced proliferation of bone marrow parent cells of the mouse): 0.0002 µg/mL
- IC70 /μg/ml (HT 29 [2]): 20 µg/mL (≈ 47.9 µM)
- IC70 /μg/ml (LXFL 529): 3 µg/mL (≈ 7.18 µM)
- IC70 /μg/ml (LXFS 538): < 0.3 µg/mL
- IC70 /μg/ml (SW 480 [3]): 3 µg/mL (≈ 7.18 µM)
- IC70 /μg/ml (OVXF 1023): 0.5 µg/mL (≈ 1.2 µM)
- IC70 /μg/ml (OVXF 899): 2 µg/mL (≈ 4.79 µM)
- IC70 /μg/ml (MEXF 989): < 0.3 µg/mL
- IC70 /μg/ml (CXF 280): 6 µg/mL (≈ 14.4 µM)
- Individual dose tolerated in mg/kg of mouse, i.v. [4]: < 25 mg/kg of mouse

Compound: C[C@@H]1O[C@H](Oc2ccc(NC(=S)N[C@H](C)C(=O)NC3C=CCC4CN(c5c(F)cc6c(=O)c(C(=O)O)cn(C7CC7)c6c5Cl)CC43)cc2)[C@@H](O)[C@H](OCC(=O)[O-])[C@@H]1O.[Na+] (stereo partly drawn) [Example 12.3, N-{N'-[O-(3-O-Carboxymethyl-β-L-fucosyl)-4-hydroxy-phenylamino-thiocarbonyl]-D-alanyl}-quinolone-a, mono-sodium salt]
- % cleavage in hepatoma 1 hour (hepatoma): 0%
- % cleavage in hepatoma 24 hours (hepatoma): 0%
- inhibition in parent cell proliferation in vivo (bone marrow parent cells; up to 30 mg/kg, subcutaneously): no inhibition
- IC50 [μg/ml] CSF-induced proliferation of bone marrow parent cells of the mouse [1]: 0.27 µg/mL
- % cleavage in SW-480 1 hour (SW-480): 0%
- % cleavage in SW-480 24 hours (SW-480): 0%
- IC50 (SW 480 [5]; Table 1b): 2 µM
- IC70 /μg/ml (HT 29 [2]): 5 µg/mL
- IC70 /μg/ml (LXFL 529): 2 µg/mL
- IC70 /μg/ml (LXFS 538): 0.5 µg/mL
- IC70 /μg/ml (SW 480 [3]): 11 µg/mL
- IC70 /μg/ml (OVXF 1023): 10 µg/mL
- IC70 /μg/ml (OVXF 899): 162 µg/mL
- IC70 /μg/ml (MEXF 989): < 0.3 µg/mL
- IC70 /μg/ml (CXF 280): 5 µg/mL
- % cleavage in human blood 1 hour [6]: 0%
- % cleavage in human blood 24 hours [6]: 0%
- Individual dose tolerated in mg/kg of mouse, i.v. [4]: > 200 mg/kg of mouse
- IC50 (B 16 F 10): 0.3 µM

Compound: batracyline
- Mean 4 hours (μg/g of organ) ([7]; Kidney, after conjugate 1 i.p. 300 mg/kg): 27.5 μg/g of organ
- Mean 0.5 hour (μg/g of organ) [7, 10]: 10.7 μg/g of organ
- Mean 4 hours (μg/g of organ) [7, 10]: 0.8 μg/g of organ
- Mean 4 hours (μg/g of organ) ([7]; Liver, after conjugate 1 i.p. 300 mg/kg): 22.4 μg/g of organ
- Mean 0.5 hour (μg/g of organ) [7, 11]: 2.5 μg/g of organ
- Mean 4 hours (μg/g of organ) [7, 11]: 3.12 μg/g of organ
- IC50 (HT 29 [8]): 20 µM
- IC50 (SW 480 [5]; Table 1a, glycoconjugates of batracyline): 25 µM
- Mean 1 hour (μg/g of organ) ([9]; Kidney): 26.1 μg/g of organ
- Mean 1 hour (μg/g of organ) ([9]; Liver): 34.1 μg/g of organ
